Source: US9556201B2, “Bicyclic pyridines and analogs as sirtuin modulators” (GLAXOSMITHKLINE LLC, priority 2009, dated 2017)

Assays:
TNF = TNF IC50 (column of Table 1; method not in the text shown); format: cell-based
SIRT1 = target: T1, SIRT1 (Homo sapiens, UniProt Q96EB6); assay: Mass spectrometry based assay to identify modulators of SIRT1 activity (deacetylation of p53-based acetylated peptide substrate); format: biochemical; details: for Emax: 25 min, SIRT1 activation, read-out: % FOLD ACT. (percent maximum fold activation)
T1 sequence (Q96EB6 1-747): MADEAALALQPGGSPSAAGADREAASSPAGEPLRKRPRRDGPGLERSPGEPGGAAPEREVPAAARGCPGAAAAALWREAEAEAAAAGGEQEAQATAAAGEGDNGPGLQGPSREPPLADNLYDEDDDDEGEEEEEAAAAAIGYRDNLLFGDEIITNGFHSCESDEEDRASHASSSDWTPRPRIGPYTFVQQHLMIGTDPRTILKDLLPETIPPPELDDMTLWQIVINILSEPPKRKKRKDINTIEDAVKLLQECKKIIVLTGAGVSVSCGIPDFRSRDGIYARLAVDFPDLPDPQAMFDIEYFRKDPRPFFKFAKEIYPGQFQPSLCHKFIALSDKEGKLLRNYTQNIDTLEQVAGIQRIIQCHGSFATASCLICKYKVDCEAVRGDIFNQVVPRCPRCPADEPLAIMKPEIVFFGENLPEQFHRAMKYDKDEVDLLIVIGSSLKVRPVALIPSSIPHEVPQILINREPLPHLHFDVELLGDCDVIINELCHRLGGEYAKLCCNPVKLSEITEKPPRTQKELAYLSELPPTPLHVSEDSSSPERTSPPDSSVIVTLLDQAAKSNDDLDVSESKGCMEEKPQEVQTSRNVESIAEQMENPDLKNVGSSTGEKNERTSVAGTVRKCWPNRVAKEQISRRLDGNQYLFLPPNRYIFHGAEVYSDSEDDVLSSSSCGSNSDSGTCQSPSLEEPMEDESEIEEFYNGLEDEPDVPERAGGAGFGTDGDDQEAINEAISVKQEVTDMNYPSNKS
How it was run: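 Deacetylation of a modified p53 acetyl-lysine peptide ([…], 5TMR-labelled, Nle for Met) by 10 nM N-His SIRT1 with 120 μM βNAD+, pH 8, 25 min, 25 °C. Substrate and product masses measured by MS after formic acid quench; nicotinamide defines maximal inhibition.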

| SMILES | IC50 (TNF) [µM] | EC1.5 (concentration giving 1.5-fold activation) (SIRT1) [nM] | Emax (SIRT1) [%] |
| --- | --- | --- | --- |
| O=C(Nc1ccnc(OCC(O)CO)n1)N1CCOc2ccc(-c3cccc(C(F)(F)F)c3)nc21 (stereo not drawn) [Compound 697] | ≥ 20 | < 1000 | > 200 |
| CN(C)c1cccc(-c2ccc3c(n2)N(C(=O)Nc2cccc(OC[C@H](O)CO)n2)CCC3)c1 [Compound 699] | < 20 | < 1000 | > 200 |
| N#Cc1cccc(-c2ccc3c(n2)N(C(=O)Nc2cccc(OC[C@H](O)CO)n2)CCC3)c1 [Compound 700] | < 20 | < 1000 | > 200 |
| Cc1cncc(NC(=O)N2CC(C)(C)Oc3ccc(-c4cccc(N5CC[C@@H](F)C5)c4)nc32)c1 [Compound 701, (R)-6-(3-(3-fluoropyrrolidin-1-yl)phenyl)-2,2-dimethyl-N-(5-methylpyridin-3-yl)-2H-pyrido[3,2-b][1,4]oxazine-4(3H)-carboxamide] | < 20 | < 1000 | > 200 |
| Cc1csc(NC(=O)N2CC(C)(C)Oc3ccc(-c4cccc(N5CC[C@@H](F)C5)c4)nc32)n1 [Compound 707] | ≥ 20 | < 1000 | > 200 |
| Cc1cncc(NC(=O)N2CCOc3cnc(-c4cccc(C(F)(F)F)c4)nc32)c1 [Compound 710] | ≥ 20 | < 1000 | > 200 |
| Cc1cc(NC(=O)N2CCOc3cnc(-c4cccc(C(F)(F)F)c4)nc32)cc(C)n1 [Compound 711] | ≥ 20 | < 1000 | > 200 |
| O=C(Nc1ccnc(N2CCC2)c1)N1CCOc2cnc(-c3cccc(C(F)(F)F)c3)nc21 [Compound 713] | ≥ 20 | < 1000 | > 200 |
| O=C(Nc1cccc(OCC(O)CO)n1)N1CCOc2cnc(-c3cccc(C(F)(F)F)c3)nc21 (stereo not drawn) [Compound 717] | ≥ 20 | < 1000 | ≤ 200 |
| O=C(Nc1cccc(OC[C@@H](O)CO)n1)N1CCC(F)(F)c2ccc(-c3cccc(C(F)(F)F)c3)nc21 [Compound 745] | < 20 | < 1000 | > 200 |
| Cc1cc(NC(=O)N2CCCC(=O)c3ccc(-c4cccc(Cl)c4)nc32)ccn1 [Compound 750] | ≥ 20 | < 1000 | > 200 |
| CC1CCN(C(=O)Nc2ccncc2)c2nc(-c3cccc(C(F)(F)F)c3)ccc21 (stereo not drawn) [Compound 786, 4-methyl-N-(pyridin-4-yl)-7-(3-(trifluoromethyl)phenyl)-3,4-dihydro-1,8-naphthyridine-1(2H)-carboxamide] | < 20 | < 1000 | > 200 |
| Cc1csc(NC(=O)N2CCC(C)c3ccc(-c4cccc(C(F)(F)F)c4)nc32)n1 (stereo not drawn) [Compound 787] | ≥ 20 | < 1000 | > 200 |
| CCN1CCCN(C(=O)Nc2cc(C)nc(C)c2)c2nc(-c3cccc(Cl)c3)ccc21 [Compound 793] | < 20 | < 1000 | > 200 |
| CCN1CCCN(C(=O)Nc2nc(C)cs2)c2nc(-c3cccc(Cl)c3)ccc21 [Compound 794] | < 20 | < 1000 | > 200 |
| CCN1CCCN(C(=O)Nc2ccnc(C)c2)c2nc(-c3cccc(Cl)c3)ccc21 [Compound 795] | < 20 | < 1000 | > 200 |
| CC1CCN(C(=O)Nc2ccc(F)cn2)c2nc(-c3cccc(C(F)(F)F)c3)ccc21 (stereo not drawn) [Compound 800] | < 20 | < 1000 | ≤ 200 |
| CC1CCN(C(=O)Nc2cccc(OC[C@@H](O)CO)n2)c2nc(-c3cccc(C(F)(F)F)c3)ccc21 (stereo partly drawn) [Compound 801] | < 20 | < 1000 | > 200 |
| CC1CCN(C(=O)Nc2ccncc2F)c2nc(-c3cccc(C(F)(F)F)c3)ccc21 (stereo not drawn) [Compound 804] | < 20 | < 1000 | > 200 |
| CC1CCN(C(=O)Nc2ccncn2)c2nc(-c3cccc(C(F)(F)F)c3)ccc21 (stereo not drawn) [Compound 805] | < 20 | < 1000 | > 200 |

| SMILES | IC50 (TNF) [µM] | EC1.5 (concentration giving 1.5-fold activation) (SIRT1) [nM] | Emax (SIRT1) [%] |
| --- | --- | --- | --- |
| O=C(Nc1cncc(OCC(O)CO)n1)N1CCC(F)(F)c2ccc(-c3cccc(C(F)(F)F)c3)nc21 (stereo not drawn) [Compound 813] | < 20 | < 1000 | > 200 |
| O=C(Nc1cccc(N2CC3(CCO3)C2)n1)N1CCOc2ccc(-c3cccc(C(F)(F)F)c3)nc21 [Compound 823, N-(6-(1-oxa-6-azaspiro[3.3]heptan-6-yl)pyridin-2-yl)-6-(3-(trifluoromethyl)phenyl)-2H-pyrido[3,2-b][1,4]oxazine-4(3H)-carboxamide] | ≥ 20 | < 1000 | > 200 |
| O=C(Nc1ccnc(OC[C@H](O)CO)n1)N1CCC(F)(F)c2ccc(-c3cccc(C(F)(F)F)c3)nc21 [Compound 825] | < 20 | < 1000 | > 200 |
| COc1nccc(NC(=O)N2CCCC(=O)c3ccc(-c4cccc(C(F)(F)F)c4)nc32)n1 [Compound 830] | ≥ 20 | < 1000 | > 200 |
| CC1(C)CCN(C(=O)Nc2ccncn2)c2nc(-c3cccc(C(F)(F)F)c3)ccc21 [Compound 838] | ≥ 20 | < 1000 | > 200 |
| Cc1csc(NC(=O)N2CCC(C)(C)c3ccc(-c4cccc(C(F)(F)F)c4)nc32)n1 [Compound 839] | < 20 | < 1000 | > 200 |
| CC1(C)CCN(C(=O)Nc2cccc(OC[C@@H](O)CO)n2)c2nc(-c3cccc(C(F)(F)F)c3)ccc21 [Compound 840] | < 20 | < 1000 | > 200 |
| CC1(C)CCN(C(=O)Nc2ccnc(OC[C@H](O)CO)n2)c2nc(-c3cccc(C(F)(F)F)c3)ccc21 [Compound 845] | < 20 | < 1000 | > 200 |
| CC1(C)CCN(C(=O)Nc2cncc(OCC(O)CO)n2)c2nc(-c3cccc(C(F)(F)F)c3)ccc21 (stereo not drawn) [Compound 848] | < 20 | < 1000 | > 200 |
| O=C(Nc1ccncc1)N1CCc2ccc(-c3cccc(C(F)(F)F)c3)nc21 [Compound 849] | < 20 | < 1000 | > 200 |
| O=C(Nc1ccncn1)N1CCc2ccc(-c3cccc(C(F)(F)F)c3)nc21 [Compound 850] | ≥ 20 | < 1000 | > 200 |
| Cc1csc(NC(=O)N2CCc3ccc(-c4cccc(C(F)(F)F)c4)nc32)n1 [Compound 851] | ≥ 20 | < 1000 | > 200 |
| O=C(Nc1cc(OCC(O)CO)ccn1)N1CCC(F)(F)c2ccc(-c3cccc(C(F)(F)F)c3)nc21 (stereo not drawn) [Compound 860] | < 20 | < 1000 | > 200 |
| O=C(Nc1ccccn1)N1CCc2ccc(-c3cccc(C(F)(F)F)c3)nc21 [Compound 861, N-(pyridin-2-yl)-6-(3-(trifluoromethyl)phenyl)-2,3-dihydro-1H-pyrrolo[2,3-b]pyridine-1-carboxamide] | ≥ 20 | < 1000 | > 200 |
| O=C(Nc1ccnc(OC[C@H](O)CO)c1)N1CCCOc2ccc(-c3cccc(Cl)c3)nc21 [Compound 864] | < 20 | 1000 to 25000 | > 200 |
| O=C(Nc1cncc(OCC(O)CO)n1)N1CCc2ccc(-c3cccc(C(F)(F)F)c3)nc21 (stereo not drawn) [Compound 868] | < 20 | < 1000 | > 200 |
| O=C(Nc1cccc(N2CC3(CCO3)C2)n1)N1CCc2ccc(-c3cccc(C(F)(F)F)c3)nc21 [Compound 869] | < 20 | < 1000 | > 200 |
| O=C(Nc1ccncc1F)N1CCc2ccc(-c3cccc(C(F)(F)F)c3)nc21 [Compound 870] | < 20 | < 1000 | > 200 |
| COc1cc(NC(=O)N2CCCOc3ccc(-c4cccc(Cl)c4)nc32)nc(OC)n1 [Compound 873] | ≥ 20 | < 1000 | > 200 |
| O=C(Nc1ccnc(OCC(O)CO)n1)N1CCc2ccc(-c3cccc(C(F)(F)F)c3)nc21 (stereo not drawn) [Compound 874] | ≥ 20 | < 1000 | > 200 |
